The results in this text go back to US20230147683A1, “TREATMENT” (UNION Therapeutics A/S, priority 2020, published 2023).

The test has as its system European D614G strain of SARS-CoV-2 (BavPat1/2020). In kind it is cell-based.

Turning to `O=C(Nc1ccc([N+](=O)[O-])cc1Cl)c1cc(Cl)ccc1O` [niclosamide ethanolamine], the “reduction of intracellular viral RNA level compared to non-treated control” value is 3 fold.
